{"source": "paper PMC3684770", "about": "(Free Radical Biology & Medicine, 2013)", "key": {"[1]": {"test_system": "1321N1 astrocyte cell line", "assay": "1321N1 oxidative stress assay (serum withdrawal, DCF)", "conditions": "for Emax / IC50: Homo sapiens; for Emax: 1321-N1, 24 h, read-out: 1321N1 oxidative stress assay Max reduction; for IC50: 1321-N1, read-out: 1321N1 oxidative stress assay IC50; for 1321N1 oxidative stress assay Toxic dose: minimum dose at which toxicity was observed", "quoted_text": "(§1) Media were then replaced with serum-free, phenol-free media for 5 h."}, "[2]": {"test_system": "C6 astrocyte cell line", "assay": "C6 oxidative stress assay (serum withdrawal, DCF)", "conditions": "for Emax / IC50: Rattus norvegicus, Astrocyte; for Emax: 24 h, read-out: C6 oxidative stress assay Max reduction; for IC50: read-out: C6 oxidative stress assay IC50; for C6 oxidative stress assay Toxic dose: minimum dose at which toxicity was observed", "quoted_text": "as §1"}, "[3]": {"test_system": "NSC34 cells", "assay": "NSC34 oxidative stress assay (serum withdrawal, DCF)", "conditions": "for Emax: Mus musculus, NSC-34, 24 h, read-out: NSC34 oxidative stress assay Max reduction; for NSC34 oxidative stress assay Toxic dose: minimum dose at which toxicity was observed", "quoted_text": "as §1"}, "[4]": {"test_system": "Nrf2-ARE pathway", "assay": "ARE reporter assay in CHO 4xARE-TK-GFP cells (Spectrum library hits)", "conditions": "for Toxic dose: lowest dose at which a reduction in GFP fluorescence was observed; for Fold GFP induction: average fold over baseline at the maximal response, CHO cells, 24 h; for Cmax: read-out: Cmax (concentration inducing a maximal response), CHO-4xARE-TK, 24 hours, serum free medium", "description": "The Z′ score was calculated as follows Z′=1−(3SD^++3SD^−)/(Ave^+–Ave^−) where SD^+ = standard deviation of positive control wells; SD^− = standard deviation of negative control wells; Ave^+ = average fluorescence reading of positive control wells; Ave^− = average fluorescence reading of negative control wells.\nMedia was removed by hand and replaced (1 compound/well) with the Spectrum library diluted to 10 μM in 0.1% DMSO using a Q-bot liquid handling system (Genetix, New Milton, UK). […] The TK-GFP CHO ARE cell line was screened twice in a single point assay and the control TK-GFP CHO cell line was screened once to eliminate false positives.\nThe compounds were applied in triplicate to confluent cells in 96 well plates in serum free medium for 24 hours and the induction of GFP measured in a fluorescence plate reader.\nIn order to screen the Spectrum collection of 2000 molecules the reporter assay was optimised in […]. To assess the suitability of the assay for library screening, a Z’ score calculation was performed by treating alternate wells with vehicle (0.1% DMSO) and 10 µM Ebselen as a positive control (see calculation in Methods). […] The library was subsequently screened at a single point concentration of 10µM for every compound. Drug library dilutions and plating were performed with a Q-BOT liquid handling system and both the 4xARE-TK-GFP reporter cell line and TK-GFP control cell line were tested for their response to the compounds. Hits were identified as having data points more than three standard deviations above the background level, which was the average value of 24 wells treated with vehicle (0.1% DMSO) only. Hit compounds were checked to see if they generated a response in the control cell line, for example by non-specific activation of transcription or autofluorescence. […] The library screen was repeated once in the 4xARE –TK-CHO cell line and compounds classed as hits in both screens were taken forward for further assessment."}}, "data": [{"compound": "CCc1cccc(CC)c1N(COC)C(=O)CCl", "note": "[Alachlor]", "values": [{"measurement": "Emax", "setting": "[1]", "result": 83, "unit": "%"}, {"measurement": "IC50", "setting": "[1]", "result": 1.97, "unit": "µM"}, {"measurement": "1321N1 oxidative stress assay Toxic dose", "setting": "[1]", "result": "none"}, {"measurement": "Emax", "setting": "[2]", "result": 62, "unit": "%"}, {"measurement": "IC50", "setting": "[2]", "result": 6.22, "unit": "µM"}, {"measurement": "Emax", "setting": "[3]", "result": 0, "unit": "%"}, {"measurement": "EC50", "setting": "[4]; Cricetulus griseus", "result": 3.29, "unit": "µM"}]}, {"compound": "COc1cc(O)cc(OC)c1OC", "note": "[Antiarol]", "values": [{"measurement": "Emax", "setting": "[1]", "result": 35, "unit": "%"}, {"measurement": "1321N1 oxidative stress assay Toxic dose", "setting": "[1]", "result": "none"}, {"measurement": "Emax", "setting": "[2]", "result": 23, "unit": "%"}, {"measurement": "IC50", "setting": "[2]", "result": 3.05, "unit": "µM"}, {"measurement": "C6 oxidative stress assay Toxic dose", "setting": "[2]", "result": 10, "unit": "µM"}, {"measurement": "Emax", "setting": "[3]", "result": -50, "unit": "%"}, {"measurement": "NSC34 oxidative stress assay Toxic dose", "setting": "[3]", "result": 10, "unit": "µM"}, {"measurement": "Toxic dose", "setting": "[4]", "result": 100, "unit": "µM"}]}, {"compound": "S=C=NCc1ccccc1", "note": "[Benzyl isothiocyanate]", "values": [{"measurement": "Emax", "setting": "[1]", "result": 8, "unit": "%"}, {"measurement": "1321N1 oxidative stress assay Toxic dose", "setting": "[1]", "result": "none"}, {"measurement": "Emax", "setting": "[2]", "result": 27, "unit": "%"}, {"measurement": "IC50", "setting": "[2]", "result": 3.47, "unit": "µM"}, {"measurement": "C6 oxidative stress assay Toxic dose", "setting": "[2]", "result": "none"}, {"measurement": "Emax", "setting": "[3]", "result": -28, "unit": "%"}, {"measurement": "NSC34 oxidative stress assay Toxic dose", "setting": "[3]", "result": "none"}, {"measurement": "EC50", "setting": "[4]; Cricetulus griseus", "result": 24, "unit": "µM"}, {"measurement": "Toxic dose", "setting": "[4]", "result": "None"}]}, {"compound": "ClC1=C(Cl)C2(Cl)C3C(Cl)C(Cl)CC3C1(Cl)C2(Cl)Cl", "note": "(stereo not shown) [Chlordane]", "values": [{"measurement": "Emax", "setting": "[1]", "result": 68, "unit": "%"}, {"measurement": "1321N1 oxidative stress assay Toxic dose", "setting": "[1]", "result": "none"}, {"measurement": "Emax", "setting": "[2]", "result": 20, "unit": "%"}, {"measurement": "IC50", "setting": "[2]", "result": 3.57, "unit": "µM"}, {"measurement": "C6 oxidative stress assay Toxic dose", "setting": "[2]", "result": "none"}, {"measurement": "Emax", "setting": "[3]", "result": 0, "unit": "%"}, {"measurement": "NSC34 oxidative stress assay Toxic dose", "setting": "[3]", "result": 3, "unit": "µM"}, {"measurement": "EC50", "setting": "[4]; Cricetulus griseus", "result": 9.18, "unit": "µM"}, {"measurement": "Fold GFP induction", "setting": "[4]", "result": 1.56, "unit": "fold"}, {"measurement": "Toxic dose", "setting": "[4]", "result": 100, "unit": "µM"}]}, {"compound": "CC1=C2C(=CO[C@H](C)[C@H]2C)C(O)=C(C(=O)O)C1=O", "note": "[Citrinin]", "values": [{"measurement": "Emax", "setting": "[1]", "result": 28, "unit": "%"}, {"measurement": "IC50", "setting": "[1]", "result": 0.338, "unit": "µM"}, {"measurement": "1321N1 oxidative stress assay Toxic dose", "setting": "[1]", "result": "none"}, {"measurement": "Emax", "setting": "[2]", "result": 23, "unit": "%"}, {"measurement": "IC50", "setting": "[2]", "result": 20, "unit": "µM"}, {"measurement": "C6 oxidative stress assay Toxic dose", "setting": "[2]", "result": "none"}, {"measurement": "Emax", "setting": "[3]", "result": 0, "unit": "%"}, {"measurement": "NSC34 oxidative stress assay Toxic dose", "setting": "[3]", "result": "none"}, {"measurement": "EC50", "setting": "[4]; Cricetulus griseus", "result": 4.1, "unit": "µM"}, {"measurement": "Fold GFP induction", "setting": "[4]", "result": 3.26, "unit": "fold"}, {"measurement": "Toxic dose", "setting": "[4]", "result": 30, "unit": "µM"}]}, {"compound": "C=CC(C1=CC(=O)C=CC1=O)c1ccccc1", "note": "(stereo not shown) [Dalbergione]", "values": [{"measurement": "Emax", "setting": "[1]", "result": 38, "unit": "%"}, {"measurement": "IC50", "setting": "[1]", "result": 64, "unit": "µM"}, {"measurement": "1321N1 oxidative stress assay Toxic dose", "setting": "[1]", "result": "None"}, {"measurement": "Emax", "setting": "[2]", "result": 40, "unit": "%"}, {"measurement": "IC50", "setting": "[2]", "result": 46, "unit": "µM"}, {"measurement": "C6 oxidative stress assay Toxic dose", "setting": "[2]", "result": "None"}, {"measurement": "Emax", "setting": "[3]", "result": 0, "unit": "%"}, {"measurement": "NSC34 oxidative stress assay Toxic dose", "setting": "[3]", "result": "None"}, {"measurement": "EC50", "setting": "[4]; Cricetulus griseus", "result": 2.47, "unit": "µM"}, {"measurement": "Toxic dose", "setting": "[4]", "result": 30, "unit": "µM"}]}, {"compound": "CC1(C)C(=O)C=C[C@]2(C)[C@H]3CC[C@@]4(C)[C@H](c5ccoc5)OC(=O)[C@H]5O[C@]54[C@]3(C)[C@H](O)C[C@@H]12", "note": "[Deacetylgedunin]", "values": [{"measurement": "Emax", "setting": "[1]", "result": 28, "unit": "%"}, {"measurement": "IC50", "setting": "[1]", "result": 2.37, "unit": "µM"}, {"measurement": "1321N1 oxidative stress assay Toxic dose", "setting": "[1]", "result": 10, "unit": "µM"}, {"measurement": "Emax", "setting": "[2]", "result": 70, "unit": "%"}, {"measurement": "IC50", "setting": "[2]", "result": 5.36, "unit": "µM"}, {"measurement": "C6 oxidative stress assay Toxic dose", "setting": "[2]", "result": "None"}, {"measurement": "Emax", "setting": "[3]", "result": 0, "unit": "%"}, {"measurement": "NSC34 oxidative stress assay Toxic dose", "setting": "[3]", "result": "None"}, {"measurement": "EC50", "setting": "[4]; Cricetulus griseus", "result": 3.5, "unit": "µM"}, {"measurement": "Fold GFP induction", "setting": "[4]", "result": 3.05, "unit": "fold"}, {"measurement": "Toxic dose", "setting": "[4]", "result": 30, "unit": "µM"}]}, {"compound": "CC1(C)C2CC(=O)O[C@@]3(C)C4=CC(=O)O[C@@H](c5ccoc5)[C@]4(C)CCC3[C@@]2(C)C=C[C@H]1O", "note": "(stereo partly shown) [Deoxyandirobin lactone]", "values": [{"measurement": "Emax", "setting": "[1]", "result": 65, "unit": "%"}, {"measurement": "IC50", "setting": "[1]", "result": 1.64, "unit": "µM"}, {"measurement": "1321N1 oxidative stress assay Toxic dose", "setting": "[1]", "result": "None"}, {"measurement": "Emax", "setting": "[2]", "result": 38, "unit": "%"}, {"measurement": "IC50", "setting": "[2]", "result": 2.87, "unit": "µM"}, {"measurement": "C6 oxidative stress assay Toxic dose", "setting": "[2]", "result": "None"}, {"measurement": "Emax", "setting": "[3]", "result": 0, "unit": "%"}, {"measurement": "NSC34 oxidative stress assay Toxic dose", "setting": "[3]", "result": "None"}, {"measurement": "EC50", "setting": "[4]; Cricetulus griseus", "result": 11.1, "unit": "µM"}, {"measurement": "Toxic dose", "setting": "[4]", "result": 100, "unit": "µM"}]}, {"compound": "CC(=O)O[C@@H]1CC2C(C)(C)C=CC(=O)[C@]2(C)C2CC[C@@]3(C)[C@H](c4ccoc4)OC(=O)C4OC43[C@@]21C", "note": "(stereo partly shown) [Isogedunin]", "values": [{"measurement": "1321N1 oxidative stress assay Max reduction", "setting": "[1]; maximum % inhibition of DCF signal", "result": 10, "unit": "%"}, {"measurement": "1321N1 oxidative stress assay Toxic dose", "setting": "[1]", "result": "None"}, {"measurement": "NSC34 oxidative stress assay Max reduction", "setting": "[3]; maximum % inhibition of DCF signal, negative = prooxidant", "result": 0, "unit": "%"}, {"measurement": "NSC34 oxidative stress assay Toxic dose", "setting": "[3]", "result": 1, "unit": "µM"}, {"measurement": "EC50", "setting": "[4]; CHO ARE reporter, 7-point concentration response", "result": "> 100", "unit": "µM"}, {"measurement": "Fold GFP induction", "setting": "[4]", "result": 3.11, "unit": "fold"}, {"measurement": "Toxic dose", "setting": "[4]", "result": "None"}]}, {"compound": "CC(C)(C)c1cc(O)ccc1O", "note": "[tBHQ, tert-butyl hydroquinone, reference compound]", "values": [{"measurement": "Cmax", "setting": "[4]", "result": 10, "unit": "µM"}]}, {"compound": "epigallocatechin-3-gallate [EGCG, reference compound]", "values": [{"measurement": "Cmax", "setting": "[4]", "result": 100, "unit": "µM"}]}]}
